These results are taken from ChEMBL document CHEMBL1132978, “Artificial neural network applied to prediction of fluorquinolone antibacterial activity by topological methods” (2000).

Each structure is given as a SMILES string. Converted amounts (≈) assume the structure as drawn.

The test relates to Escherichia coli. Nature of the test: Minimum inhibitory concentration against Escherichia coli. It counts as functional.
For orientation: MIC means the lowest concentration found to suppress growth. `NCC1CCCN(c2c(F)cc3c(=O)c(C(=O)O)cn(C4CC4)c3c2N)C1` (centres undefined) displayed an MIC of 0.4 µg/mL (≈ 1.07 µM). As for `CNC(C)C1CCN(c2cc3c(c(N)c2F)c(=O)c(C(=O)O)cn3C2CC2)C1` (centres undefined), the minimum inhibitory concentration (MIC) amounted to 0.1 µg/mL (≈ 0.257 µM). In the case of `CCCCN1CCN(c2cc3c(cc2F)c(=O)c(C(=O)O)cn3C2CC2)CC1` it was 0.1 µg/mL (≈ 0.258 µM); in that of `CCNCC1CCN(c2nc3c(cc2F)c(=O)c(C(=O)O)cn3-c2ccc(F)cc2F)C1` (centres undefined), 0.2 µg/mL (≈ 0.448 µM). In the case of `NC1CCN(c2nc3c(cc2F)c(=O)c(C(=O)O)cn3-c2ccc(F)cc2F)C1` (centres undefined) [TOSUFLOXACIN] it was 0.025 µg/mL (≈ 0.0618 µM). Compound `COc1c(N2CCCC(N)C2)c(F)c(N)c2c(=O)c(C(=O)O)cn(C3CC3)c12` (centres undefined) showed an MIC of 0.1 µg/mL (≈ 0.256 µM). The same measure for `CC1(CN)CCN(c2nc3c(cc2F)c(=O)c(C(=O)O)cn3C2CC2)C1` (centres undefined): 0.2 µg/mL (≈ 0.555 µM); for `CCOc1c(N2CCC(N)C2)c(F)c(N)c2c(=O)c(C(=O)O)cn(C3CC3)c12` (centres undefined): 0.05 µg/mL (≈ 0.128 µM); for `COc1c(N2CCC(CN)CC2)c(F)cc2c(=O)c(C(=O)O)cn(C3CC3)c12`: 0.1 µg/mL (≈ 0.257 µM). In the case of `NCC1CCN(c2c(F)cc3c(=O)c(C(=O)O)cn(C4CC4)c3c2F)C1` (centres undefined) it was 0.025 µg/mL (≈ 0.0688 µM); in that of `CCNCC1CCN(c2c(F)cc3c(=O)c(C(=O)O)cn(C4CC4)c3c2OCC)CC1`, 0.8 µg/mL (≈ 1.85 µM).

In turn, `COc1c(N2CCNCC2)c(F)cc2c(=O)c(C(=O)O)cn(C3CC3)c12` registered an MIC of 0.05 µg/mL (≈ 0.138 µM). In turn, `Nc1c(F)c(N2CCC(N)C2)c(F)c2c1c(=O)c(C(=O)O)cn2C1CC1` (centres undefined) had an MIC of 0.006 µg/mL (≈ 0.0165 µM). Compound `CCOc1c(N2CCC(C)C2)c(F)cc2c(=O)c(C(=O)O)cn(C3CC3)c12` (centres undefined) displayed an MIC of 0.05 µg/mL (≈ 0.134 µM).

Consider `CC1CN(c2cc3c(cc2F)c(=O)c(C(=O)O)cn3C2CCC2)CCN1` (centres undefined), for which the minimal inhibitory concentration (MIC) came to 0.4 µg/mL (≈ 1.11 µM). The same measure for `CCNCC1CCN(c2nc3c(cc2F)c(=O)c(C(=O)O)cn3C2CC2)C1` (centres undefined): 0.1 µg/mL (≈ 0.267 µM); for `CNCC1CCN(c2cc3c(cc2F)c(=O)c(C(=O)O)cn3C(C)(C)C)C1` (centres undefined): 0.4 µg/mL (≈ 1.07 µM). The same measure for `CC1(CN)CCN(c2c(F)c(N)c3c(=O)c(C(=O)O)cn(C4CC4)c3c2F)C1` (centres undefined): 0.2 µg/mL (≈ 0.51 µM); for `NC1CCN(c2cc3c(cc2F)c(=O)c(C(=O)O)cn3C2CC2)C1` (centres undefined): 0.05 µg/mL (≈ 0.151 µM).
